The results in this text go back to patent US10933114B2, “Nutritional supplements containing a peptide component and uses thereof” (Mead Johnson Nutrition Company, priority 2014, dated 2021).

What all share (type): in vivo
The test system of experiment [1] is LDLr knockout mice. The experiment can be described thus: Liver function marker ALAT in pooled plasma (Examples 1 and 2). The protocol: (§1) Blood samples were takes in week 0, 3, 6, 9, 15 and 21 after 5 hours of fasting. Blood glucose was measured using hand-held glucometer immediately. Plasma cholesterol and plasma triglyceride levels were assayed immediately in fresh EDTA-plasma. The remainder of the plasma was stored at −80° C. for analysis of insulin and ALAT, and for possible other additional follow-up analysis. Faecal samples were collected over a 48 hour period at cage level in week 0, 9, and 21. Additionally, individual faecal samples were collected in week 21 to allow individual faecal analysis. Total body fat and lean body mass were assessed non-invasively by EchoMR1 in week 0, 9, 15, and 21. Mice were placed in a constraint tube which was then inserted into the EchoMR1 for a period of approximately 30 seconds. During that time, total body fat and lean body mass were calculated and recorded and the mouse was removed from the apparatus.
ALAT levels were measured at baseline, week 9 and week 21 in pooled plasma. Baseline levels were low (11 U/L). Upon HFD feeding, ALAT levels increased to 58 U/L in week 9 and further increased to 187 U/L in week 21 in the HFD group. For comparison, ALAT levels in chow fed mice reached levels of approximately 52 U/L in week 21 (data from other study). […] Also ALAT level in LGG treated mice were lower compared to HFD (66 U/L in week 9 and 124 U/L in week 21). […]

Experiment [2] deals with LDLr knockout mice. The experiment can be described thus: Fasting plasma cholesterol and triglycerides (Examples 1 and 2). As to the method: (§2) At t=0 mice were matched into experimental groups based on blood glucose (primary matching parameter) and body weight (secondary matching parameter). The control group received a lard based high fat diet (HFD 45 kcal % from lard; diet D12451 Research Diets, New Brunswick, USA) containing 23.7% w/w protein, 41.4% w/w carbohydrates and 23.6% w/w fat.
as §1
Blood glucose was measured immediately using a hand-held glucometer. Total plasma cholesterol and triglyceride levels were measured using kits No. 11489437 and 11488872 (Roche Diagnostics, Almere, The Netherlands), respectively. The plasma levels of insulin (Ultrasensitive mouse insulin ELISA, Merdocia, Uppsala, Sweden) were determined by ELISA.
(§3) Example 2 describes the experimental procedures for evaluating metabolic, and cardiovascular risk factors in LDLr knockout mice fed a HFD supplemented with a >500 Da peptide fraction of the Peptide component. The same experimental procedures and methodologies as employed in Example 1 were used in Example 2.

The test system of experiment [3] is LDLr knockout mice. As to the kind of experiment: Tissue weights at sacrifice, week 21 (Examples 1 and 2). The settings on record: sacrifice after 21 weeks. The protocol:
The mice were sacrificed (un-fasted) in week 21. After sacrifice, the following samples were isolated: • Serum Sample by heart puncture • Heart including aortic root (for atherosclerosis analysis) • Aortic arch (thoracic) in −80° C. • Total liver weight, 2 pieces of sinister and caudate lobe in −80° C., medial lobe formalin • Adipose tissue • Sub cutaneous (inguinal): weight, right in −80° C., left in formalin • Epididymal: weight, right in −80° C., left in formalin • Visceral (omental): weight, part in −80° C., part in formalin • Brown adipose tissue weight part in −80° C., part in formalin • Pancreas in −80° C. • Spleen (in formalin) • Kidneys (right in −80° C., left in formalin) • Ileum (last 8 cm before caecum) in −80° C. • Colon (including faeces) in −80° C. • Eyes: left in Davidson formalin, right in −80° C. • Brain (right in −80° C., left in 4% paraformaldehyde
After 21 weeks of dietary treatment, the mice were sacrificed. Tissues were isolated and weighed.
as §3

In experiment [4] the test system is LDLr knockout mice. As to the kind of experiment: Fasting blood glucose, plasma insulin and HOMA-IR (Examples 1 and 2). The protocol: as §2
as §1, with “Additionally, individual faecal samples were collected in week 21 to allow individual faecal analysis.” left out, “Mice were placed in a constraint tube which was then inserted into the EchoMR1 for a period of approximately 30 seconds.” left out
Blood glucose was measured immediately using a hand-held glucometer. Total plasma cholesterol and triglyceride levels were measured using kits No. 11489437 and 11488872 (Roche Diagnostics, Almere, The Netherlands), respectively. The plasma levels of insulin (Ultrasensitive mouse insulin ELISA, Merdocia, Uppsala, Sweden) were determined by ELISA. […]

The test system of experiment [5] is LDLr knockout mice. The experiment can be described thus: Body weight and food intake in LDLr knockout mice on high fat diet, 21 weeks (Examples 1 and 2, Study 2). The source says:
Both the high fat diet and the tested diets with the peptide component, LCPUFA, and LGG were isocaloric. A control diet (low fat, 10% kcal by fat) served as a reference group. The first study, indicated as Study 1 in Table 3 below, compared the mice on the high fat diet, to mice on a high fat diet supplemented with a combination of the peptide component, LCPUFA, and LGG. Whereas, the second study, indicated as Study 2 in Table 3 below, examined the effects on the mice of the individual ingredients.
Example 1 describes the experimental procedures for evaluating metabolic, and cardiovascular risk factors in LDLr knockout mice fed and HFD and supplemented with a peptide component, LCPUFA, and LGG.
The mice used were LDLr knockout mice, which phenotypically express the main risk factors that are characteristic for metabolic syndrome and that are hallmarks of human disease. Experiments were performed to conform to the rules and regulations set forward by the Netherlands Law on Animal Experiments and were approved by a Committee on Animal Experiments (DEC; approval number 3486).
Sixty-seven male LDLr−/− mice (11-18 weeks of age at the start of the experiment) obtained from the breeding facility at TNO were used. […]

In experiment [6] the test system is LDLr knockout mice. The experiment can be described thus: Body composition analysis by EchoMRI (Examples 1 and 2). The note with it: absolute values. As to the method:
as §1, §3

For the substance Lactobacillus rhamnosus GG [LGG], the ALAT in the experiment with LDLr knockout mice [1] (week 9, pooled plasma) was determined as 66 U/L; in the experiment with LDLr knockout mice [1] (week 21, pooled plasma), 124 U/L. Moreover, the “Plasma triglycerides compared to HFD control” value in the experiment on LDLr knockout mice [2] (NHLL week 9 until week 21, Peptide component all time points) is reported as “slightly, but not significantly lower compared with HFD control”. Moreover, the “Plasma cholesterol compared to other groups” value in the experiment with LDLr knockout mice [2] (throughout the study) is given as “no significant effects on plasma cholesterol”. Moreover, the Plasma triglycerides in the experiment on LDLr knockout mice [2] (week 21) turned out to be 2.0 ± 1.0 mM. Moreover, the “Liver weight compared to HFD” value in the experiment on LDLr knockout mice [3] is “tended to be lower compared to the HFD”. Also, in the experiment on LDLr knockout mice [3] (three depots), the “Adipose tissue weights compared to HFD” value was “comparable to HFD”. The “Fasting blood glucose, difference to HFD control” value in the experiment on LDLr knockout mice [4] (t=9 weeks, temporary drop in HFD control absent in these groups) is “significant differences”. The “Fasting plasma insulin compared to HFD control” value in the experiment with LDLr knockout mice [4] (week 21 (NHLL, Peptide component), time not stated for LCPUFA, LGG) is given as “comparable to the HFD control group”. The “Body weight compared to HFD” value with LDLr knockout mice [5] (after 21 weeks) is recorded as “slightly, but not significantly lower compared to HFD”. In the experiment on LDLr knockout mice [5] (after 21 weeks of HFD feeding), the Body weight amounted to 45.8 ± 5.3 g. Further, in the experiment with LDLr knockout mice [6], the “Total body fat compared to HFD” value is “No effects on total body fat”.
